Assay [1] deals with isolated gastric fundic gland. Briefly: CAP: Acid Secretion Inhibition Test In Vitro ([14C]-aminopyrine uptake test). The format is cell-based, male Japanese White rabbit. Conditions: Oryctolagus cuniculus; final concentration 10^-5 M, histamine 10^-5 M; read-out: acid secretion inhibitory rate (CAP). As for the experimental part:
CAP: Acid Secretion Inhibition Test In Vitro
The acid secretion inhibitory activity in a cell level is studied. It can also be used for studying the mechanism of the effect.
ii-a) Preparation of isolated gastric fundus gland suspension
First, an isolated gastric fundic gland sample was prepared. Namely, a male Japanese White rabbit (2.5 to 3 kg) was anesthetized to death with Nembutal™ and then the abdomen was incised. Immediately thereafter, the stomach was removed and, after its pyloric and cardiac antrum were severed, incised along its greater curvature into two sheets. The gastric contents adhering to the mucosal surface was washed out with ice-cooled PBS (-) and then carefully washed therein. The gastric wall was spread on a cork board with its mucosal surface facing up and the feed and mucus thereon were completely removed with sterile gauze. The mucosa was separated therefrom by a spatula and then collected in ice-cooled PBS (-). After being washed twice with PBS (-), the mucosa was minced into 2-3 mm^3 pieces by scissors. These pieces were further washed twice with a nutrient solution. The nutrient solution comprises 132.4 mM of NaCl, 5.4 mM of KCl, 5 mM of Na2 HPO4.12H2 O, 1 mM of NaH2 PO4.2H2,
1.2 mM of MgSO4, 1 mM of CaCl2, 25 mM of HEPES, 2 mg/ml of glucose, and 1 mg/ml of BSA.
Into 70 ml of the nutrient solution containing 1 mg/ml of collagenase, minced mucosal pieces were dispersed and intensely stirred in a conical flask with a stirrer at 37° C. for 40 to 60 minutes. During this period, 100% O2 was sprayed on the nutrient solution surface and the pH was appropriately measured such that it was immediately adjusted to pH 7.4, when the value was therebelow, with a base. The nutrient solution was added to the reaction solution so as to attain the total amount of about 200 ml. After being filtered through a mesh, the suspension was divisionally introduced into 50 ml centrifuge tubes and left for 15 minutes such that gastric fundic gland was deposited. The supernatant was repeatedly removed by an aspirator, dispersed in the nutrient solution, and then left such that the gastric fundic gland was washed three times. At this time, without using a pipette, the suspension was alternately introduced into two centrifuge tubes so as to effect dispersion. The number of cells was counted under microscope and adjusted to 1.6×10^6 cells/ml.
ii-b) [^14 C]-aminopyrine uptake test.
Then, [^14 C]-aminopyrine uptake test was performed. After an Eppendorf tube was weighed, 10 μl (final concentration: 10^-5 M) of histamine dissolved in the above-mentioned nutrient solution, 10 μl (final concentration: 10^-5 M) of the test compound dissolved in DMSO, and 10 μl (final concentration: 0.05 μCi/ml) of [^14 C]-aminopyrine diluted with the nutrient solution were introduced therein and then 970 μl of the isolated gastric fundic gland suspension prepared above was added thereto. Subsequently, this mixture was shaken at 37° C. for 40 minutes at 125 cycles/minute. After being centrifuged for 30 seconds, 200 μl of its supernatant was collected into a mini-vial, while the rest was removed by an aspirator. The gland pellet was completely dried as the tube with its lid being opened was kept for one night in a drying oven at 80° C. and then the lid was closed and the weight was determined at room temperature. Then 100 μl of 1N KOH was added thereto and the tube with its lid being closed was treated at 60° C. for 1 to 2 hours so as to dissolve the pellet. Then, the contents thereof were transferred to a mini-vial. Into the mini-vial containing the supernatant or gland pellet, 4 ml of Atomlite™ was added and then the radioactivity was measured by a liquid scintillation counter. Here, after the radioactivity of the gland pellet was corrected by using a sample in which 20 mM of NaSCN was added so as to cancel the hydrogen ion concentration gradient, the integration ratio of aminopyrine specifically trapped by the gland pellet was calculated. […]

Another assay relates to stress ulcer. In words: WIS: Restraint and Water Immersion Stress-Induced Ulcer Inhibition Test. It counts as in vivo, male Crj:SD or Slc:SD rats. The note with it: rat, 100 mg/kg oral, 7 h water immersion stress; read-out: ulcer formation inhibitory rate (WIS). The protocol:
WIS: Restraint and Water Immersion Stress-Induced Ulcer Inhibition Test
The degree of inhibition of the stress ulcer formation is tested.
Male Crj:SD or Slc:SD rats (6 to 7-week-old) were fasted overnight, but allowed free access to water. Each group has 5 to 8 of these rats. The sample compound was dissolved or suspended in an aqueous solution of 0.3% sodium carboxymethylcellulose or 0.05% Tween 80 and then was orally administered (100 mg/10 ml/kg. To a control group, the vehicle was administered. 10 minutes later, the rats were placed in a stress cage and immersed to the level of xipfoid process in a water bath (21° C.) for 7 hours. At the end of the stress, the rats were sacrificed by inhalation of ether or carbon dioxide. Then, the stomach of each was removed, inflated by injecting 10 ml of 5% formalin neutral buffer solution, and immersed in 1% formalin neutral buffer solution for 30 minutes or more to be fixed. The stomach was incised along the greater curvature and then the length of each erosion in the glandular portion was determined under dissecting microscope. The sum of the length of erosions per stomach was defined as ulcer index (UI).
The effect obtained when 100 mg/kg of the sample compound had been administered was expressed as ulcer formation inhibitory rate (%) as follows:
ulcer formation inhibitory rate (%)=(1-(UI in sample group/UI in control group))×100

For the compound `CCN1CCCC1CNC(=O)c1cc(OCC=C(C)C)ccc1OCC=C(C)C` (stereo not drawn) [Example 6, 1-ethyl-2-(2,5-diprenyloxybenzoylaminomethyl)pyrrolidine], the inhibition at 10 µM in assay [1] is 100%. Besides, in the assay on stress ulcer, the inhibition in vivo at 100 mg/kg turned out to be 84%.
For `CCN1CCCC1CNC(=O)c1ccc(OCC=C(C)C)c(OCC=C(C)C)c1` (stereo not drawn) [Example 7, 1-ethyl-2-(3,4-diprenyloxybenzoylaminomethyl)pyrrolidine], in assay [1], the inhibition at 10 µM was determined as 99.7%. Besides, the inhibition in vivo at 100 mg/kg with stress ulcer came out at 92%.
For `CCN1CCCC1CNC(=O)c1cc(OC/C=C(\C)CCC=C(C)C)ccc1OC/C=C(\C)CCC=C(C)C` (stereo not drawn) [Example 10, 1-ethyl-2-(2,5-digeranyloxybenzoylaminomethyl)pyrrolidine] the same measures were 100% and 74%.

Source of the values: US5925667A, “Pyrrolidine derivative, anti-ulcer drug, and antibacterial drug” (Shiseido Co., Ltd., priority 1997, dated 1999).
